Assay results reported in ChEMBL document CHEMBL6083286, “Discovery of ERD-12310A as an Exceptionally Potent and Orally Efficacious PROTAC Degrader of Estrogen Receptor α (ERα)” (J Med Chem, 2024).
Active and inactive are the calls of the source. The calls are words filed in the database; no cut-off is given here.

Columns and labels:
Type in all cases: cell-based
[1] = target: T1, Protein cereblon/Estrogen receptor (Homo sapiens, UniProt P03372+Q96SW2); experiment: PROTAC activity at CRBN/ERalpha in human MCF7 cells assessed as reduction in ERalpha protein level measured after 12 hrs by Western blot analysis
Target sequence in this assay (P03372 whole entry): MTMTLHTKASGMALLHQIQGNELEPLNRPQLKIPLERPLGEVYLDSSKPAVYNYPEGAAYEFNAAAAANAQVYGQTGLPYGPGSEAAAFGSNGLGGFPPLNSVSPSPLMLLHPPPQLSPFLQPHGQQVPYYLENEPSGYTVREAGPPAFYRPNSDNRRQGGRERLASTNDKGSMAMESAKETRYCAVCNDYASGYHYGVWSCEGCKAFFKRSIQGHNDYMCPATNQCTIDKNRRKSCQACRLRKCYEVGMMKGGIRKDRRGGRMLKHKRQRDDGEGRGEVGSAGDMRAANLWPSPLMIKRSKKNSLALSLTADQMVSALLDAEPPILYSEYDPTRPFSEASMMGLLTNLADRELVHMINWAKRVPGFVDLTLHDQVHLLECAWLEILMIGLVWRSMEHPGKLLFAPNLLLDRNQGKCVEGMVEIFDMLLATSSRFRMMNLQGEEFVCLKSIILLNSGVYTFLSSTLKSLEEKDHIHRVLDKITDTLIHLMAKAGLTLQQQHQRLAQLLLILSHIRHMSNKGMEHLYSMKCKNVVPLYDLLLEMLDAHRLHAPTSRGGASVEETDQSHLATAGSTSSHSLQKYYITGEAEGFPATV
Target sequence in this assay (Q96SW2 whole entry): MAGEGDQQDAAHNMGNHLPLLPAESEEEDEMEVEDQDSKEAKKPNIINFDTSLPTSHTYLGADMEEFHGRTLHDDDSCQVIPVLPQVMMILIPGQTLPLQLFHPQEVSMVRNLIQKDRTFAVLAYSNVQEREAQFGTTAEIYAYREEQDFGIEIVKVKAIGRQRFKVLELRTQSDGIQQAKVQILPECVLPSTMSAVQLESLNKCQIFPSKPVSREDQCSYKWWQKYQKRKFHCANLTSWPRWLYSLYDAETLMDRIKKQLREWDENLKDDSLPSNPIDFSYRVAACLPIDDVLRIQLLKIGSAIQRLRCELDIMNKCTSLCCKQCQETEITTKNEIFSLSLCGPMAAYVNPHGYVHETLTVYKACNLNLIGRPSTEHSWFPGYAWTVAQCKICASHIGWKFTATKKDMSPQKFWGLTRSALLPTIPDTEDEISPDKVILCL

[2] = target: T1, Protein cereblon/Estrogen receptor; experiment: PROTAC activity at CRBN/ERalpha in human MCF7 cells assessed as reduction in ERalpha protein level measured after 12 hrs by Western blot analysis relative to control
Target sequence in this assay (P03372 whole entry, looked up): as the sequence (P03372 whole entry) above
Target sequence in this assay (Q96SW2 whole entry, looked up): as the sequence (Q96SW2 whole entry) above

[3] = target: T1, Protein cereblon/Estrogen receptor; experiment: PROTAC activity at CRBN/wild type ERalpha in human T47D cells assessed as reduction in ERalpha protein level at 10 to 100 nM measured at 7 hrs by Western blot analysis; details: dose 10-100 nM
Target sequence in this assay (P03372 whole entry, looked up): as the sequence (P03372 whole entry) above
Target sequence in this assay (Q96SW2 whole entry, looked up): as the sequence (Q96SW2 whole entry) above

T47D [4] = experiment: PROTAC activity at CRBN/ ERalpha D538G mutant in human T47D cells assessed as reduction in ERalpha protein level at 10 to 100 nM measured at 7 hrs by Western blot analysis; parameters: scale not given: the % may be the effect or the level left; details: dose 10-100 nM
T47D [5] = experiment: PROTAC activity at CRBN/ ERalpha Y537S mutant in human T47D cells assessed as reduction in ERalpha protein level at 10 to 100 nM measured at 7 hrs by Western blot analysis; parameters: scale not given: the % may be the effect or the level left; details: dose 10-100 nM

O=C1CC[C@H](N2Cc3c(ccc4c3OCC43CCN(C[C@H]4CCC5(CCN(c6ccc([C@@H]7c8ccc(O)cc8CC[C@@H]7c7ccccc7)cc6)CC5)OC4)CC3)C2=O)C(=O)N1
DC50 [1]: 0.142 nM | Emax [2]: 100%

O=C1CC[C@H](N2Cc3c(ccc4c3OCC43CCN(C(=O)CN4CCCC5(CCN(c6ccc([C@@H]7c8ccc(O)cc8CC[C@@H]7c7ccccc7)cc6)CC5)C4)CC3)C2=O)C(=O)N1
DC50 [1]: 0.202 nM | Emax [2]: 95%

O=C1CC[C@H](N2Cc3c(ccc4c3OCC43CCN(CC4CC5(C4)CN(c4ccc([C@@H]6c7ccc(O)cc7CC[C@@H]6c6ccccc6)cc4)C5)CC3)C2=O)C(=O)N1
DC50 [1]: 0.156 nM | Emax [2]: 81%

O=C1CC[C@H](N2Cc3c(ccc4c3OCC43CCN(C(=O)CC4CCN(c5ccc([C@@H]6c7ccc(O)cc7CC[C@@H]6c6ccccc6)cc5)CC4)CC3)C2=O)C(=O)N1
DC50 [1]: 0.025 nM | Emax [2]: 86%

O=C1CC[C@H](N2Cc3c(ccc4c3OCC43CCN(CC4CCC5(CCN(c6ccc([C@@H]7c8ccc(O)cc8CC[C@@H]7c7ccccc7)cc6)CC5)OC4)CC3)C2=O)C(=O)N1 (stereo partly specified)
DC50 [1]: 0.139 nM | Emax [2]: 99%

O=C1CC[C@H](N2Cc3c(ccc4c3OCC43CCN(C(=O)CN4CC5(CCN(c6ccc([C@@H]7c8ccc(O)cc8CC[C@@H]7c7ccccc7)cc6)CC5)C4)CC3)C2=O)C(=O)N1
DC50 [1]: 0.018 nM | Emax [2]: 106%

O=C1CC[C@H](N2Cc3c(ccc4c3OCC43CCN(CCCC4CCN(c5ccc([C@@H]6c7ccc(O)cc7CC[C@@H]6c6ccccc6)cc5)CC4)CC3)C2=O)C(=O)N1
DC50 [1]: 0.038 nM | Emax [2]: 98%

O=C1CC[C@H](N2Cc3c(ccc4c3OCC43CCN(CC(=O)N4CCCC5(CCN(c6ccc([C@@H]7c8ccc(O)cc8CC[C@@H]7c7ccccc7)cc6)CC5)C4)CC3)C2=O)C(=O)N1
DC50 [1]: 0.0288 nM | Emax [2]: 99%

O=C1CC[C@H](N2Cc3c(ccc4c3OCC43CCN(CC(=O)N4CCC5(CCN(c6ccc([C@@H]7c8ccc(O)cc8CC[C@@H]7c7ccccc7)cc6)CC5)C4)CC3)C2=O)C(=O)N1
DC50 [1]: 0.0419 nM | Emax [2]: 100%

O=C1CC[C@H](N2Cc3c(ccc4c3OCC43CCN(CC4CC5(CCN(c6ccc([C@@H]7c8ccc(O)cc8CC[C@@H]7c7ccccc7)cc6)CC5)CO4)CC3)C2=O)C(=O)N1 (stereo partly specified)
DC50 [1]: 0.303 nM | Emax [2]: 94%

O=C1CC[C@H](N2Cc3c(ccc4c3OCC43CCN(CC4CC5(CCN(c6ccc([C@@H]7c8ccc(O)cc8CC[C@@H]7c7ccccc7)cc6)CC5)C4)CC3)C2=O)C(=O)N1
DC50 [1]: 0.147 nM | Emax [2]: 87%

O=C1CC[C@H](N2Cc3c(ccc4c3OCC43CCN(CC4CCC5(CC4)CN(c4ccc([C@@H]6c7ccc(O)cc7CC[C@@H]6c6ccccc6)cc4)C5)CC3)C2=O)C(=O)N1
DC50 [1]: 0.11 nM | Emax [2]: 95%

O=C1CC[C@H](N2Cc3c(ccc4c3OCC43CCN(CCC4CCN(c5ccc([C@@H]6c7ccc(O)cc7CC[C@@H]6c6ccccc6)cc5)CC4)CC3)C2=O)C(=O)N1
DC50 [1]: 0.0043 nM | Emax [2]: 80%

C[C@]12CC[C@@H]3c4ccc(O)cc4C[C@@H](CCCCCCCCC[S+]([O-])CCCC(F)(F)C(F)(F)F)[C@H]3[C@@H]1CC[C@@H]2O (stereo partly specified)
Emax [2]: 100%

O=C1CC[C@H](N2Cc3c(ccc4c3OCC43CCN(CCCCCC4CCN(c5ccc([C@@H]6c7ccc(O)cc7CC[C@@H]6c6ccccc6)cc5)CC4)CC3)C2=O)C(=O)N1
DC50 [1]: 0.42 nM | Emax [2]: 105%

Oc1ccc2c(c1)CC[C@H](c1ccccc1)[C@@H]2c1ccc(OCCN2CCCC2)cc1
Activity [3]: inactive | Activity (T47D [4]): inactive | Activity (T47D [5]): inactive

O=C1CC[C@H](N2Cc3c(ccc4c3OCC43CCN(C(=O)CCC4CCN(c5ccc([C@@H]6c7ccc(O)cc7CC[C@@H]6c6ccccc6)cc5)CC4)CC3)C2=O)C(=O)N1
DC50 [1]: 0.116 nM | Emax [2]: 89%

O=C1CC[C@H](N2Cc3c(ccc4c3OCC43CCN(CC(=O)N4CC5(C4)CN(c4ccc([C@@H]6c7ccc(O)cc7CC[C@@H]6c6ccccc6)cc4)C5)CC3)C2=O)C(=O)N1
DC50 [1]: 0.0142 nM | Emax [2]: 99%

O=C1CC[C@H](N2Cc3c(ccc4c3OCC43CCN(C(=O)CN4CC5(C4)CN(c4ccc([C@@H]6c7ccc(O)cc7CC[C@@H]6c6ccccc6)cc4)C5)CC3)C2=O)C(=O)N1
DC50 [1]: 0.011 nM | Emax [2]: 99%

O=C1CC[C@H](N2Cc3c(ccc4c3OCC43CCN(CC4CCC5(CCN(c6ccc([C@@H]7c8ccc(O)cc8CC[C@@H]7c7ccccc7)cc6)CC5)O4)CC3)C2=O)C(=O)N1 (stereo partly specified)
DC50 [1]: 0.604 nM | Emax [2]: 86%

O=C1CCC(N2Cc3c(ccc4c3OCC43CCN(CC4COC5(CCN(c6ccc([C@@H]7c8ccc(O)cc8CC[C@@H]7c7ccccc7)cc6)CC5)C4)CC3)C2=O)C(=O)N1 (stereo partly specified)
DC50 [1]: 0.041 nM | Emax [2]: 79%

O=C1CC[C@H](N2Cc3c(ccc4c3OCC43CCN(CCCCC4CCN(c5ccc([C@@H]6c7ccc(O)cc7CC[C@@H]6c6ccccc6)cc5)CC4)CC3)C2=O)C(=O)N1
DC50 [1]: 0.031 nM | Emax [2]: 105%

O=C1CC[C@H](N2Cc3c(ccc4c3OCC43CCN(C(=O)CN4CCC5(CCN(c6ccc([C@@H]7c8ccc(O)cc8CC[C@@H]7c7ccccc7)cc6)CC5)C4)CC3)C2=O)C(=O)N1
DC50 [1]: 0.029 nM | Emax [2]: 107%

O=C1CC[C@H](N2Cc3c(ccc4c3OCC43CCN(CC4CCN(c5ccc([C@@H]6c7ccc(O)cc7CC[C@@H]6c6ccccc6)cc5)CC4)CC3)C2=O)C(=O)N1
Emax [2]: 37%

O=C1CC[C@H](N2Cc3cc(N4CCN(CC5CCN(c6ccc([C@@H]7c8ccc(O)cc8CC[C@@H]7c7ccccc7)cc6)CC5)CC4)ccc3C2=O)C(=O)N1 [VEPDEGESTRANT]
Activity (T47D [4]): > 80% | Activity (T47D [5]): > 80%

O=C1CC[C@H](N2Cc3c(ccc4c3OCC43CCN(CC4COC5(CCN(c6ccc([C@@H]7c8ccc(O)cc8CC[C@@H]7c7ccccc7)cc6)CC5)OC4)CC3)C2=O)C(=O)N1
DC50 [1]: 0.167 nM | Emax [2]: 100%

O=C1CC[C@H](N2Cc3c(ccc4c3OCC43CCN(CC4CCC5(CCN(c6ccc([C@@H]7c8ccc(O)cc8CC[C@@H]7c7ccccc7)cc6)CC5)C4)CC3)C2=O)C(=O)N1 (stereo partly specified)
DC50 [1]: 0.126 nM | Emax [2]: 92%

O=C1CC[C@H](N2Cc3c(ccc4c3OCC43CCN(C(=O)CCCC4CCN(c5ccc([C@@H]6c7ccc(O)cc7CC[C@@H]6c6ccccc6)cc5)CC4)CC3)C2=O)C(=O)N1
DC50 [1]: 0.079 nM | Emax [2]: 95%

CCNCCc1ccc(CN(CC)c2cc(OC)ccc2[C@@H]2CCc3cc(O)ccc3C2)cc1
Activity [3]: Active | Activity (T47D [4]): Active | Activity (T47D [5]): Active

O=C1CC[C@H](N2Cc3c(ccc4c3OCC43CCN(CC4CCC5(CC4)CCN(c4ccc([C@@H]6c7ccc(O)cc7CC[C@@H]6c6ccccc6)cc4)CC5)CC3)C2=O)C(=O)N1
DC50 [1]: 0.337 nM | Emax [2]: 99%

O=C1CC[C@H](N2Cc3c(ccc4c3OCC43CCN(C(=O)CN4CCC5(CC4)CCN(c4ccc([C@@H]6c7ccc(O)cc7CC[C@@H]6c6ccccc6)cc4)CC5)CC3)C2=O)C(=O)N1
DC50 [1]: 0.035 nM | Emax [2]: 103%

O=C1CC[C@H](N2Cc3c(ccc4c3OCC43CCN(CC(=O)N4CCC5(CC4)CCN(c4ccc([C@@H]6c7ccc(O)cc7CC[C@@H]6c6ccccc6)cc4)CC5)CC3)C2=O)C(=O)N1
DC50 [1]: 0.0363 nM | Emax [2]: 105%

O=C1CC[C@H](N2Cc3c(ccc4c3OCC43CCN(C(=O)C4CCN(c5ccc([C@@H]6c7ccc(O)cc7CC[C@@H]6c6ccccc6)cc5)CC4)CC3)C2=O)C(=O)N1
DC50 [1]: 0.028 nM | Emax [2]: 82%
